Paper PMC9241057, “Ru(II)arene(N^N bpy/phen)-based RAPTA complexes for in vitro anti-tumour activity in human glioblastoma cancer cell lines and in vivo toxicity studies in a zebrafish model” (RSC Advances, 2022)

What was measured:
[1] = biological target: bovine serum albumin (BSA) (Bos taurus, UniProt P02769); assay: BSA binding study, tryptophan emission quenching; settings: for n, number of binding sites (BSA): Scatchard equation; for kq, quenching rate constant (BSA): from KBSA and τo (1 × 10^−8 s)
Chain of bovine serum albumin (BSA) (P02769 25-607): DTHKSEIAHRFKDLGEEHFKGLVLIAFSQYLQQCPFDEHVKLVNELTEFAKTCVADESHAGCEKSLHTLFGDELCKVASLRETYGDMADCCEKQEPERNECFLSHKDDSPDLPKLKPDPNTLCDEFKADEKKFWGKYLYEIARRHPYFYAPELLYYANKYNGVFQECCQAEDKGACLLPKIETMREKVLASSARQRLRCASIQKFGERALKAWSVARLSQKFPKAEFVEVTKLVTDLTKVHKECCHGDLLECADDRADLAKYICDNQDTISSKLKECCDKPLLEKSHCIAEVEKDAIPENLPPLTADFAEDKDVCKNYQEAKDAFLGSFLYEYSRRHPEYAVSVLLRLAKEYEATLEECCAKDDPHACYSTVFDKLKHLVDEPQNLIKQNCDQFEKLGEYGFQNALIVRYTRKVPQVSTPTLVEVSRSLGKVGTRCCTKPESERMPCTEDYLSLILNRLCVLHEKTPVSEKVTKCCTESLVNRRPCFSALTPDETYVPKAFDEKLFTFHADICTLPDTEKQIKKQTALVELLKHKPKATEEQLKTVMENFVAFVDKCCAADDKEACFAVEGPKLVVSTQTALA
Protocol: The KBSA of the complexes was obtained from Stern–Volmer plots by applying the well-known Stern–Volmer equation (Fig. S4 ^†). On the other hand, the quenching constants (kq) of 6.3 × 10^14 M^−1 s^−1 and 1.8 × 10^14 M^−1 s^−1 arising from biomolecular interactions were evaluated from KBSA and τo (1 × 10^−8 s) for the complexes 4c and 4d, correspondingly (Table S3 ^†). […]
Kapp × [Complex]50 = kEtBr × [EtBr]⋯⋯⋯(iii) […]
Stern-Volmer equation was followed for quantitative determination of the Stern-Volmer quenching constant (K SV).4 Origin (8.5) software was used to plot the fluorescence data to obtain linear plot of I0/I vs. [complex]. The value of KSV was calculated from the following […]
Where I0 = fluorescence intensity in absence of complex and I = fluorescence intensities in presence of complex of concentration [Q].
Protein binding studies 5
The main component is serum albumin proteins in drug transport and metabolism, as we all know. The interaction of the complex with […] serum albumin (BSA) was examined using a tryptophan emission quenching experiment. The association of the RAPTA complexes 4c and 4d with the protein BSA was detected using a tryptophan emission quenching assay. […]
concentrations gradually.
Origin Lab, version 8.5 was […]
equation (v) given below: […]

[2] = tested on: T98G cells; assay: Neurosphere assay; type: cell-based, human; settings: T98G, 20, 80 and 160 μM
Protocol: The neurosphere assay is one of the best methods for analysing the stem cell capacity of isolated brain cells.[23] The stem cell media was used to grow T98G cells through single-cell division within 3 days and subsequently the development of small-diameter “neurosphere-like” tumour spheres within 7 days. After 12–14 days of culture, a phase-contrast microscope was used to take the image of the tumour spheres. To promote differentiation, DMEM (containing 10% FBS) medium was added to the tumour spheres.
Fig. 5 Neurosphere assay using different concentrations: (b) 20 μM, (c) 80 μM and (d) 160 μM of complex 4c against the T98G cell line; (a) pre-treatment (concentration of 4c = 0 μM).
Serum-free DMEM/F-12 (1 : 1), B27 (1 : 50), EGF (20 μg L^−1), bFGF (20 μg L^−1), antibiotic (Gibco) were added to stem cell media. The cells were grown in a tissue culture incubator with 5% CO2 at […]. Serum-free media were changed twice a week.

[3] = tested on: zebrafish; assay: In vivo biodistribution study in zebrafish; settings: 25 μg g^−1, 15 minutes
Protocol: Biodistribution and sequestration studies of complex 4c were conducted via the caudal vein injection into the zebrafish. After 15 minutes (25 μg g^−1) of exposure, the fish were sacrificed and different organs (brain, heart, kidney, intestine, notochord and digestive system) were dissected and the biodistribution of this complex into these organs was measured by fluorescence microscopy. A comparative study was performed with complex 4c and Evans blue dye and was analyzed by the confocal imaging of the tissue sections. From this experiment, it was observed that the sensitivity of zebrafish towards 4c was sequestered in the brain, heart, kidney, intestine, notochord and digestive system. […] Furthermore, this fluorescence-based interaction could provide us with an idea of the uptake mechanism via crossing the blood–brain barrier.
Zebrafish were anesthetized with 2-phenoxyethanol and injected with complex 4cvia […]. After injection at different times, the fish were sacrificed and the organs were collected and fixed with 4% paraformaldehyde and 4% glutaraldehyde, followed by dehydration with the gradient increase of ethanol (75%, 95%, 100%) for 20 min each, further with xylene for 1 h and then fixed in Paraplast. […] Sequestration of complex 4c in different organs was investigated by confocal fluorescence microscopy using a CLSM (Zeiss LSM 710) microscope. […]

[4] = Solubility; settings: DMSO-10% DMEM medium (1:99 v/v, comparable to cell media)
[5] = tested on: TNF-α-induced NF-κB phosphorylation; assay: Real-time RT-PCR; type: cell-based, human; settings: glioma cells, 48 h
From the text: It is known that the NF-κB pathway plays an important role in the modulation of inflammatory and immune responses.[25] Under normal conditions, NF-κB is found in the cytoplasm as the dimer complex p65/p50 with the kappa B inhibitor forming the NF-κB-IκB complex which involves TNF-α. As expected, the treatment with TNF-α induces IκB protein phosphorylation and the NF-κB dimer p65/p50 is translocated into the nucleus. Inside the nucleus, the NF-κB dimer binds to its own DNA and the κB site, initiating the transcription of many genes associated with proliferation as well as the invasion of cells, anti-apoptosis along with drug resistivity (e.g., Bcl-2 family, Bcl-XL, cyclin D1, c-myc, interleukin-1 and 6 (IL-6), cyclooxygenase-2 (COX-2), inducible NO-synthase (iNOS)). Complex 4c reduced TNF-α-induced NF-κB phosphorylation at 48 h. In summary, complex 4c inhibited the TNF-α-induced NF-κB phosphorylation in glioma cells and NF-κB could be validated as a targeted therapeutic molecule for tumour diseases (Fig. S5 ^†).
Cultured cells U87MG and T98G were treated with various concentrations of 4c (20–160 μM) for 48 h. Total RNA was extracted and complementary DNA (cDNA) was transcribed using Qiazol reagent and Thermo Scientific Revert Aid First Strand cDNA Synthesis Kit. […] The amplified products were analyzed by a melting curve analysis.

Compound: C1N2CN3CN1CP(C2)C3.Cc1ccc(C(C)C)cc1.Cc1ccnc2c1ccc1c(C)ccnc12.F[P-](F)(F)(F)(F)F.F[P-](F)(F)(F)(F)F.[Ru+2] [4c, [(η^6-p-Cymene)Ru^II(κ^2-N,N-4,7dimethylphenanthroline)(PTA)]·2PF6]
- n, number of binding sites (BSA) [1]: 1
- kq, quenching rate constant (BSA) [1]: 6.3e+14 M⁻¹ s⁻¹
- effect on neurospheres [2]: Complete developmental neurotoxicity
- accumulation in the brain [3]: accumulation was significant
- sequestration in digestive system, kidney and notochord [3]: maximum sequestration
- solubility [4]: 18 mM
- TNF-α-induced NF-κB phosphorylation [5]: reduced

Compound: C1N2CN3CN1CP(C2)C3.Cc1ccc(C(C)C)cc1.F[P-](F)(F)(F)(F)F.F[P-](F)(F)(F)(F)F.[Ru+2].c1ccc(-c2ccnc3c2ccc2c(-c4ccccc4)ccnc23)cc1 [4d, [(η^6-p-Cymene)Ru^II(κ^2-N,N-4,7diphenylphenanthroline)(PTA)]·2PF6]
- n, number of binding sites (BSA) [1]: 1
- K, binding constant with BSA ([1]; Scatchard plot): 52500 M⁻¹
- kq, quenching rate constant (BSA) [1]: 1.8e+14 M⁻¹ s⁻¹
